The target of this assay is CD73 (Homo sapiens (Human), UniProt P21589). Description: Biochemical assay: inhibition of CD73 activity (AMP hydrolysis, Malachite Green readout). The conditions noted are these: CD73 0.3208 nM, AMP 15 μM, 25 mM Tris-HCl pH 7.4, RT, absorbance 620 nm. The procedure, abridged: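 Human CD73 (320 pM final) preincubated 15 min at RT with compounds (10-point ½-log titration from 100 μM, duplicates) in 25 mM Tris-HCl pH 7.4, 5 mM MgCl2, 0.01% Brij-35, 0.01% BSA. 15 μM AMP added, 10 min at RT; released phosphate read by Malachite Green absorbance; IC50 determined.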
CD73, sequence (P21589 27-574): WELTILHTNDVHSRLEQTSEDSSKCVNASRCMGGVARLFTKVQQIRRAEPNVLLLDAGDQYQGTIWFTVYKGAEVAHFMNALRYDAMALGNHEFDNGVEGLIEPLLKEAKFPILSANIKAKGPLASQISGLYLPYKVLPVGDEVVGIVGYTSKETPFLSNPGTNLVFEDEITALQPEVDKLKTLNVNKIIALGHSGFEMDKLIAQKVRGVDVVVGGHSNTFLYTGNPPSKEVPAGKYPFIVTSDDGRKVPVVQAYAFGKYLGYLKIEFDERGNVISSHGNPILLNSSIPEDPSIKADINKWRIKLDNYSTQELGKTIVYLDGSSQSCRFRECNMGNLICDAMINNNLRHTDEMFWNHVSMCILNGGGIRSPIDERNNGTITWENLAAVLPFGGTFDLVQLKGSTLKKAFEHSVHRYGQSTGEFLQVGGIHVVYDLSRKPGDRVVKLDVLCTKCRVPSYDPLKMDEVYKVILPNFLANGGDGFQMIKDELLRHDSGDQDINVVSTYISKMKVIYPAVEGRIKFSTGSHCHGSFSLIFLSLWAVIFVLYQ

A word on the IC50: it is the concentration at which inhibition is half-maximal. Lower therefore signals greater potency in that assay.

Structures are written as SMILES. Where only a bound is given, the exact number is not on record here.

In turn, `O=P(O)(O)[C@@](CO)(Cc1nn[nH]n1)OC[C@H]1O[C@@H](n2ncc3c(NC4CCC4)nc(Cl)nc32)[C@H](O)[C@@H]1O` (racemic) [Example 213, rac-((R)-2-(((2R,3S,4R,5R)-5-(6-chloro-4-(cyclobutylamino)-1H-pyrazolo[3,4-d]pyrimidin-1-yl)-3,4-dihydroxytetrahydrofuran-2-yl)methoxy)-1-hydroxy-3-(2H-tetrazol-5-yl)propan-2-yl)phosphonic acid] registered a half-maximal inhibitory concentration (IC50) of at most 100 nM. Consider `CC(CO)(OC[C@H]1O[C@@H](n2ncc3c(NC4CCCC4)nc(Cl)nc32)[C@H](O)[C@@H]1O)P(=O)(O)O` (stereo partly drawn) [Example 15, (2-(((2R,3S,4R,5R)-5-(6-Chloro-4-(cyclopentylamino)-1H-pyrazolo[3,4-d]pyrimidin-1-yl)-3,4-dihydroxytetrahydrofuran-2-yl)methoxy)-1-hydroxypropan-2-yl)phosphonic acid], for which the IC50 is at most 100 nM.

As to `O=P(O)(O)COC[C@H]1O[C@@H](n2nnc3c(NC4CCC4)cc(Cl)nc32)[C@H](O)[C@@H]1O` [Example 23, ((((2R,3S,4R,5R)-5-(5-chloro-7-(cyclobutylamino)-3H-[1,2,3]triazolo[4,5-b]pyridin-3-yl)-3,4-dihydroxytetrahydrofuran-2-yl)methoxy)methyl)phosphonic acid], the concentration for half-maximal inhibition (IC50) is at most 100 nM. For `COCC(OC[C@H]1O[C@@H](n2nnc3c(NC4CCCC4)nc(Cl)nc32)[C@H](O)[C@@H]1O)P(=O)(O)O` (stereo partly drawn) [Example 142, (1-(((2R,3S,4R,5R)-5-(5-chloro-7-(cyclopentylamino)-3H-[1,2,3]triazolo[4,5-d]pyrimidin-3-yl)-3,4-dihydroxytetrahydrofuran-2-yl)methoxy)-2-methoxyethyl)phosphonic acid], the IC50 is at most 100 nM. Molecule `O=P(O)(O)COC[C@H]1O[C@@H](n2nnc3c(NCC4CCC4)cc(Cl)nc32)[C@H](O)[C@@H]1O` [Example 24, ((((2R,3S,4R,5R)-5-(5-chloro-7-((cyclobutylmethyl)amino)-3H-[1,2,3]triazolo[4,5-b]pyridin-3-yl)-3,4-dihydroxytetrahydrofuran-2-yl)methoxy)methyl)phosphonic acid] had an IC50 of at most 100 nM.

The molecule `O=P(O)(O)C(CO)(Cc1nn[nH]n1)OC[C@H]1O[C@@H](n2ncc3c(NC4CCCC4)nc(Cl)nc32)[C@H](O)[C@@H]1O` (stereo partly drawn) [Example 84, (2-(((2R,3S,4R,5R)-5-(6-Chloro-4-(cyclopentylamino)-1H-pyrazolo[3,4-d]pyrimidin-1-yl)-3,4-dihydroxytetrahydrofuran-2-yl)methoxy)-1-hydroxy-3-(2H-tetrazol-5-yl)propan-2-yl)phosphonic acid] registered an IC50 of at most 100 nM. The value for `C[C@@](CO)(OC[C@H]1O[C@@H](n2nnc3c(NC4CCCC4)cc(Cl)nc32)[C@H](O)[C@@H]1O)P(=O)(O)O` [Example 139, ((R)-2-(((2R,3S,4R,5R)-5-(5-chloro-7-(cyclopentylamino)-3H-[1,2,3]triazolo[4,5-b]pyridin-3-yl)-3,4-dihydroxytetrahydrofuran-2-yl)methoxy)-1-hydroxypropan-2-yl)phosphonic acid] was at most 100 nM; that for `O=P(O)(O)C(CO)(CO)OC[C@H]1O[C@@H](n2ncc3c(N[C@@H]4CCc5ccccc54)nc(OCCO)nc32)[C@H](O)[C@@H]1O` [Example 100, (2-(((2R,3S,4R,5R)-5-(4-(((R)-2,3-dihydro-1H-inden-1-yl)amino)-6-(2-hydroxyethoxy)-1H-pyrazolo[3,4-d]pyrimidin-1-yl)-3,4-dihydroxytetrahydrofuran-2-yl)methoxy)-1,3-dihydroxypropan-2-yl)phosphonic acid] was at most 100 nM; that for `O=P(O)(O)CS(=O)(=O)C[C@H]1O[C@@H](n2ncc3c(NC4CCCC4)cc(Cl)nc32)[C@H](O)[C@@H]1O` [Example 162, (((((2S,3S,4R,5R)-5-(6-chloro-4-(cyclopentylamino)-1H-pyrazolo[3,4-b]pyridin-1-yl)-3,4-dihydroxytetrahydrofuran-2-yl)methyl)sulfonyl)methyl)phosphonic acid] was at most 100 nM.

In turn, `O=P(O)(O)C(CO)(COCCO)OC[C@H]1O[C@@H](n2ncc3c(NC4CCCC4)nc(Cl)nc32)[C@H](O)[C@@H]1O` (mixture of isomers) [Example 172, rac-(2-(((2R,3S,4R,5R)-5-(6-chloro-4-(cyclopentylamino)-1H-pyrazolo[3,4-d]pyrimidin-1-yl)-3,4-dihydroxytetrahydrofuran-2-yl)methoxy)-1-hydroxy-3-(2-hydroxyethoxy)propan-2-yl)phosphonic acid] came in with a concentration for half-maximal inhibition (IC50) of at most 100 nM. The figure for `CC(CO)(OC[C@H]1O[C@@H](n2nnc3c(NC4CCCC4)nc(Cl)nc32)[C@H](O)[C@@H]1O)P(=O)(O)O` (stereo partly drawn) [Example 67, (2-(((2R,3S,4R,5R)-5-(5-chloro-7-(cyclopentylamino)-3H-[1,2,3]triazolo[4,5-d]pyrimin-3-yl)-3,4-dihydroxytetrahydrofuran-2-yl)methoxy)-1-hydroxypropan-2-yl)phosphonic acid] is at most 100 nM; for `CC(C)(O)C#Cc1nc(NC2CCCC2)c2cnn([C@@H]3O[C@H](COC(C)(CO)P(=O)(O)O)[C@@H](O)[C@H]3O)c2n1` (mixture of isomers) [Example 192, rac-(2-(((2R,3S,4R,5R)-5-(4-(cyclopentylamino)-6-(3-hydroxy-3-methylbut-1-yn-1-yl)-1H-pyrazolo[3,4-d]pyrimidin-1-yl)-3,4-dihydroxytetrahydrofuran-2-yl)methoxy)-1-hydroxypropan-2-yl)phosphonic acid] it is at most 100 nM. Molecule `COC[C@](C)(OC[C@H]1O[C@@H](n2nnc3c(NC4CCCC4)cc(Cl)nc32)[C@H](O)[C@@H]1O)P(=O)(O)O` [Example 148, ((R)-2-(((2R,3S,4R,5R)-5-(5-chloro-7-(cyclopentylamino)-3H-[1,2,3]triazolo[4,5-b]pyridin-3-yl)-3,4-dihydroxytetrahydrofuran-2-yl)methoxy)-1-methoxypropan-2-yl)phosphonic acid] showed a 50% inhibitory concentration (IC50) of at most 100 nM. The figure for `O=P(O)(O)[C@](CO)(Cc1nn[nH]n1)OC[C@H]1O[C@@H](n2ncc3c(NC4CCCC4)nc(Cl)nc32)[C@H](O)[C@@H]1O` [Example 103, ((S)-2-(((2R,3S,4R,5R)-5-(6-chloro-4-(cyclopentylamino)-1H-pyrazolo[3,4-d]pyrimidin-1-yl)-3,4-dihydroxytetrahydrofuran-2-yl)methoxy)-1-hydroxy-3-(2H-tetrazol-5-yl)propan-2-yl)phosphonic acid] is at most 100 nM.

The molecule `CC(CO)(OC[C@H]1O[C@@H](n2cnc3c(NC4CCCC4)nc(Cl)nc32)[C@H](O)[C@@H]1O)P(=O)(O)O` (stereo partly drawn) [Example 76, (2-(((2R,3S,4R,5R)-5-(2-chloro-6-(cyclopentylamino)-9H-purin-9-yl)-3,4-dihydroxytetrahydrofuran-2-yl)methoxy)-1-hydroxypropan-2-yl)phosphonic acid] displayed an IC50 of at most 100 nM. As for `C[C@](CO)(OC[C@H]1O[C@@H](n2ncc3c(NC4CCC4)nc(Cl)nc32)[C@H](O)[C@@H]1O)P(=O)(O)O` [Example 102, ((S)-2-(((2R,3S,4R,5R)-5-(6-chloro-4-(cyclobutylamino)-1H-pyrazolo[3,4-d]pyrimidin-1-yl)-3,4-dihydroxytetrahydrofuran-2-yl)methoxy)-1-hydroxypropan-2-yl)phosphonic acid], the IC50 is at most 100 nM. `O=P(O)(O)C(CO)(CO)OC[C@H]1O[C@@H](n2ncc3c(NCC4CC4)nc(CO)nc32)[C@H](O)[C@@H]1O` (racemic) [Example 202, rac-(2-(((2R,3S,4R,5R)-5-(4-((cyclopropylmethyl)amino)-6-(hydroxymethyl)-1H-pyrazolo[3,4-d]pyrimidin-1-yl)-3,4-dihydroxytetrahydrofuran-2-yl)methoxy)-1,3-dihydroxypropan-2-yl)phosphonic acid]: the IC50 is at most 100 nM. The value for `O=P(O)(O)[C@](CO)(Cc1nn[nH]n1)OC[C@H]1O[C@@H](n2ncc3c(NC4CCCC4)nc(CO)nc32)[C@H](O)[C@@H]1O` (racemic) [Example 217, rac-((R)-2-(((2S,3R,4S,5S)-5-(4-(cyclopentylamino)-6-(hydroxymethyl)-1H-pyrazolo[3,4-d]pyrimidin-1-yl)-3,4-dihydroxytetrahydrofuran-2-yl)methoxy)-1-hydroxy-3-(2H-tetrazol-5-yl)propan-2-yl)phosphonic acid] was at most 100 nM; that for `CNc1nc(Cl)nc2c1cnn2[C@@H]1O[C@H](COC(CO)P(=O)(O)O)[C@@H](O)[C@H]1O` (stereo partly drawn) [Example 29, (1-(((2R,3S,4R,5R)-5-(6-chloro-4-(methylamino)-1H-pyrazolo[3,4-d]pyrimidin-1-yl)-3,4-dihydroxytetrahydrofuran-2-yl)methoxy)-2-hydroxyethyl)phosphonic acid] was at most 100 nM; that for `O=P(O)(O)C(CO)OC[C@H]1O[C@@H](n2nnc3c(NC4CCCC4)cc(Cl)nc32)[C@H](O)[C@@H]1O` (stereo partly drawn) [Example 60, (1-(((2R,3S,4R,5R)-5-(5-chloro-7-(cyclopentylamino)-3H-[1,2,3]triazolo[4,5-b]pyridin-3-yl)-3,4-dihydroxytetrahydrofuran-2-yl)methoxy)-2-hydroxyethyl)phosphonic acid] was at most 100 nM. With `COC[C@@](C)(OC[C@H]1O[C@@H](n2ncc3c(NCC4CC4)nc(Cl)nc32)[C@H](O)[C@@H]1O)P(=O)(O)O` [Example 129, ((S)-2-(((2R,3S,4R,5R)-5-(6-chloro-4-((cyclopropylmethyl)amino)-1H-pyrazolo[3,4-d]pyrimidin-1-yl)-3,4-dihydroxytetrahydrofuran-2-yl)methoxy)-1-methoxypropan-2-yl)phosphonic acid], the IC50 was at most 100 nM. `C[C@](CO)(OC[C@H]1O[C@@H](n2ncc3c(NC4CCCC4)nc(OCCO)nc32)[C@H](O)[C@@H]1O)P(=O)(O)O` [Example 147, ((S)-2-(((2R,3S,4R,5R)-5-(4-(cyclopentylamino)-6-(2-hydroxyethoxy)-1H-pyrazolo[3,4-d]pyrimidin-1-yl)-3,4-dihydroxytetrahydrofuran-2-yl)methoxy)-1-hydroxypropan-2-yl)phosphonic acid] came in with a 50% inhibitory concentration (IC50) of at most 100 nM.

(Values after patent publication US11325938B2, “CD73 inhibitors” (ORIC Pharmaceuticals, Inc., priority 2018, dated 2022).)
